Assays:
Format in all cases: cell-based
[1] = tested on: methicillin-resistant Staphylococcus aureus, USA300 JE2; test: MIC by broth dilution, MRSA; details: 20 h at 37 °C in Müller–Hinton broth
Description: (§1) The compounds were screened against cultures of the gram-positive bacterium methicillin-resistant Staphylococcus aureus, USA300 JE2 ([ref. 28 and 29]) (MRSA) and the gram-negative Escherichia coli, TOP10 (E. coli).[30] Kanamycin[30] was used as a positive control.
(§2) MIC values were established using a […] broth dilution method in cation-adjusted Müller–Hinton (MH) broth. 96-well plates (200 μL of 128 μg mL^–1, 64 μM) complex in MH broth, diluted 2^n μg mL^–1, inoculated with each bacterial strain (10^3 cfu mL^–1) were sealed and growth was monitored over 20 h at 37 °C with an iEMS 96-well plate reader (see ESI ^†).

Escherichia coli, TOP10 = test: MIC by broth dilution, E. coli; details: 20 h at 37 °C in Müller–Hinton broth
Description: as §1, §2

[2] = tested on: HCT116 p53^–/– (human colon carcinoma, p53-null); test: MTT chemosensitivity (IC50), HCT116 p53-/- cells; details: 96 h exposure, triplicate, mean with standard deviation (esd)
From the text: (§3) The activities of the new compounds and cisplatin were investigated in human tumour cell lines: (a) MDA-MB-468 (human epithelial breast adenocarcinoma);[24] (b) HCT116 p53^+/+ and (c) HCT116 p53^–/–.[25] The HCT116 p53^+/+ and HCT116 p53^–/– cancer cells are human colorectal cancer cell lines that are genetically identical (isogenic) except for the presence or absence of functional p53.[25] These were chosen to enable screening of the effects of p53 status as the loss of p53 function is common genetic event in patient tumours and is strongly associated with increased resistance to many conventional chemotherapeutic agents.[25],[26]
(§4) Compounds were added (100 μM to 5 nM in cell medium) for a further 96 h. 3-(4,5-Dimethylthiazol-[…])-2,5-diphenyl tetrazolium bromide solution (0.5 mg mL^–1, 20 μL per well) was added for a final 4 h. Upon completion all solutions were aspirated, dimethyl sulfoxide (150 μl) was added and absorbance (540 nm) was recorded with a Thermo Scientific Multiskan EX microplate photometer. […]
(§5) 0 ×10 3 c el l s / wel l and i nc u bat ed f or24 hat 37 ° C i n an at mos p h er e of5% C O2, p r i ort o d r u gexp os u r e. […]
(§6) C ell med ia (20 0 μ l) was ad d ed to the referenc e c ells and d iffering c onc entrations of d ru g s olu tion (20 0 μ l) were ad d ed to the remaining wells . […]

[3] = tested on: MDA-MB-468 (human epithelial breast adenocarcinoma); test: MTT chemosensitivity (IC50), MDA-MB-468 cells; details: 96 h exposure, triplicate, mean with standard deviation (esd)
From the text: as §3, §4, §5, §6

[4] = tested on: HCT116 p53^+/+ (human colon carcinoma, wild type p53); test: MTT chemosensitivity (IC50), HCT116 p53+/+ cells; details: 96 h exposure, triplicate, mean with standard deviation (esd)
From the text: as §3, §4, §5, §6

[5] = approximate concentration in μM

MRSA MIC [1] | MRSA MIC [1, 5] | E. coli MIC (Escherichia coli, TOP10) | E. coli MIC (Escherichia coli, TOP10; [5]) | SMILES | IC50 [2] | IC50 [3] | IC50 [4]
1 μg ml^–1 | 2 µM | 2 μg ml^–1 | 4 µM | NC[C@H]1O[C@H](O[C@H]2[C@H](O)[C@@H](O[C@H]3O[C@H](CO)[C@@H](O)[C@H](N)[C@H]3O)[C@H](N)C[C@@H]2N)[C@H](O)[C@@H](O)[C@@H]1O [Kanamycin] |  |  | 
 |  |  |  | N.N.[Cl][Pt][Cl] [cisplatin] | 8.1 ± 1.8 µM | 2.5 ± 0.5 µM | 3.5 ± 1.5 µM
